Source: patent US20110059043A1, “CHEMICAL COMPOUNDS” (priority 2009, published 2011)

Tests used:
[1] = test system: HCV replicon cells Huh 9B; assay: HCV replicon assay (luciferase); type: cell-based; conditions: Hepatitis C virus, reduction of replicon level by 50% vs untreated cell control, 72 h
Method: (§1) HCV replicon cells Huh 9B (ReBlikon), containing the firefly luciferase—ubiquitin—neomycin phosphotransferase fusion protein and EMCV-IRES driven HCV polyprotein with cell culture adaptive mutations.
(§2) Cells were cultured at 37° C. in a 5% CO2 environment and split twice a week on seeding at 2×10^6 cells/flask on day 1 and 1×10^6 3 days later. G418 at 0.5 mg/ml was added to the culture medium but not the assay medium. The culture medium consisted of DMEM with […] glucose and glutamax (Gibco 61965-026) supplemented with 1×non-essential amino acids (Invitrogen 11140-035), penicillin (100 IU/ml)/streptomycin (100 μg/ml) (Invitrogen 15140-122), FCS (10%, 50 ml) and […] (Invitrogen 10131-027) & 10% Australian foetal calf serum (Invitrogen 10099-141).
(§3) A flask of cells was trypsinised and a cell count carried out. Cells were diluted to 100,000 cells/ml and 100 μl of this used to seed one opaque white 96-well plate (for the replicon assay) and one flat-bottomed clear plate (for the tox assay) for every five compounds to be tested for IC50. Wells G12 and H12 were left empty in the clear plate as the blank. Plates were then incubated at 37° C. in a 5% CO2 environment for 24 h.
(§4) On the following day compound dilutions are made up in medium at twice their desired final concentration in a clear round bottomed plate. All dilutions have a final DMSO concentration of 1%.
(§5) Once the dilution plate had been made up, controls and compounds were transferred to the assay plates (containing the cells) at 100 μl/well in duplicate wells. Exception: no compound was added to wells A1 and A2 of either plate and 100 μl of 1% DMSO was added to these instead. Plates were then incubated at 37° C. with 5% CO2 for 72 h.
At the end of the incubation time, the cells in the white plate were harvested by washing in PBS (100 μL per well) and gently tapping dry before addition of […] of lysis buffer (25 mM tris-phosphate, 8 mM MgCl2, 1 mM DTT, 1% Triton X-100, 15% glycerol. pH to 7.8 using KH2PO4 prior to triton and glycerol addition. Substrate was prepared: 23.5 mM beetle luciferin (Promega E1603), 26 mM ATP (Sigma O-2060) in […] Tris buffer pH 7.8 aliquoted and stored at −80° C. was thawed and diluted 1:50 in luciferase assay buffer (20 mM Tricine (Sigma T-0377), 1.07 mM magnesium carbonate hydroxide (Sigma M-5671), 0.1 mM EDTA (Sigma E-5134), 2.67 mM MgSO4(BDH 101514Y), 33.3 mM dithiothreitol (Sigma 150460) pH 7.8).
The M injector of the microplate luminometer (Lmax, Molecular Devices) was primed with 5×300 μl injections of the diluted substrate. After 5-60 min incubation in lysis buffer at room temperature, a plate was inserted into the luminometer and 100 μl luciferase assay reagent was added by the injector on the luminometer. The signal was measured using a 1 second delay followed by a 4 second measurement programme. The IC50, the concentration of the drug required for reducing the replicon level by 50% in relation to the untreated cell control value, can be calculated from the plot of the percentage reduction of the luciferase activity vs. drug concentration.

[2] = target: T1, Recombinant HCV polymerase (BK strain) (Hepatitis C virus genotype 1b, UniProt P26663); assay: HCV polymerase enzyme assay (radiometric [33P]-UTP incorporation); type: biochemical, HCV 1b
T1 construct: Recombinant HCV polymerase (BK strain) was expressed and purified from E. coli with a 21 amino acid C-terminal deletion; His6; made in house; host or cells: E. coli
Method: Compounds were tested for inhibition of HCV polymerase using a radiometric [^33P]-UTP incorporation assay and a biotinylated U13:PolyA primer:template RNA substrate.
Recombinant HCV polymerase (BK strain) was expressed and purified from E. coli with a 21 amino acid C-terminal deletion and a His6-tag. The general assay buffer consisted of 20 mM Tris (pH 7.5), 25 mM KCl, 5 mM MgCl2, 3 mM DTT, 0.5 mg/ml BSA, 0.01% Tween20. The standard reaction, in 96 well plates, contained 10 μl of diluted compound, 50 μl of substrate and 40 μl of enzyme. Compounds, supplied as 10 mM stocks in DMSO, were diluted initially in neat DMSO, and subsequently buffer was added to give a DMSO concentration of 30%; 10 μl of this was added to the assay plate to give a final concentration in the 100 μl assay of 3% DMSO. The biotinylated U13:PolyA RNA substrate was pre-annealed with 40 μM 5′-biotinylated U13 (Dharmacon) and 213 μg/ml PolyA (Amersham Biosciences) in water incubated at 70° C. for 5 minutes before being cooled on ice. Substrate (50 μl) was added in buffer to give a final concentration in the 100 μl assay of 125 nM biotinylated U13:0.63 μg/ml PolyA and 200 nM UTP with 0.4 μCi [^33P]-UTP per well (Perkin Elmer). The reaction was initiated by the addition of 40 μl of enzyme in buffer to give 100 nM final concentration. The reaction was incubated at 25° C. for 100 minutes and then stopped by addition of 100 μl of 100 mM EDTA. The samples were then transferred to 96 well Streptavidin-coated FlashPlates (Perkin Elmer) and incubated at room temperature for ˜1 hour to allow binding to occur. The plates were then washed three times with phosphate-buffered saline containing 0.05% Tween20 in an automated plate washer to remove unincorporated [^33P]-UTP, and then counted in a
Each plate included a set of positive controls (no compound, maximum signal) and negative controls (no enzyme, minimum signal) and in each run at least one reference is compound was included to validate the assay. The IC50, concentration required to inhibit the enzyme activity by 50%, was calculated using an 8-point IC50 curve and fitted using the program XLfit (IDBS).

[3] = test system: HCV replicon cells Huh 9B; type: cell-based; conditions: concentration reducing total cell area by 50% relative to DMSO controls; 72 h
Method: as §1, §2, §3, §4, §5
The clear plate was stained with 100 μl 0.5% methylene blue in 50% ethanol at room temperature for lh, followed by solvation of the absorbed methylene blue in 100 μl per well of 1% lauroylsarcosine. Absorbance of the plate was measured on a microplate spectrophotometer (Molecular Devices) and the absorbance for each concentration of compound expressed as a proportion of the relative DMSO control. The TD50, the concentration of drug required to reduce the total cell area by 50% relative to the DMSO controls, can be calculated by plotting the absorbance at 620 nm minus background against drug concentration.

T1 sequence (P26663 2420-2989): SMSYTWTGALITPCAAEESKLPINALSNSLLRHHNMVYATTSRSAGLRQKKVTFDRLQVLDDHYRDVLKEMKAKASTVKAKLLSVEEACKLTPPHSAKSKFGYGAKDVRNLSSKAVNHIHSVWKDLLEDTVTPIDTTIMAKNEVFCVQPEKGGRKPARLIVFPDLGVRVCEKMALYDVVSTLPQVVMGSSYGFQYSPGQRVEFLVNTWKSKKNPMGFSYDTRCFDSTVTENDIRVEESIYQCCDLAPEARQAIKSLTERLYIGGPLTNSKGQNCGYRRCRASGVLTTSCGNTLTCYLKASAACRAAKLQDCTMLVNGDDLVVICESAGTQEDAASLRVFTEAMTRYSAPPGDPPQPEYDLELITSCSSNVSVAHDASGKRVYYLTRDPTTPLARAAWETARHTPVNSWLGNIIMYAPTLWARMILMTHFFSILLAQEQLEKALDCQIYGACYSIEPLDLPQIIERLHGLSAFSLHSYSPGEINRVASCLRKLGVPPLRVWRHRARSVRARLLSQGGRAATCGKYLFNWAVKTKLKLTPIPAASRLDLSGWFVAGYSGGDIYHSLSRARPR

Structure (SMILES) | IC50 [1] | IC50 [2] | Replicon Assay Value TD50 [3]
COCCOc1ncc(F)cc1C(=O)NC1N=C(c2c(Cl)cc(Cl)cc2CN2CCOCC2)c2ccccc2NC1=O (stereo not drawn) [Example 52, N-(5-(2,4-Dichloro-6-(morpholinomethyl)phenyl)-2-oxo-2,3-dihydro-1H-benzo[e][1,4]diazepin-3-yl)-5-fluoro-2-(2-methoxyethoxy)nicotinamide] | 129 nM | 605 nM | 24.829 µM
COCCOc1ccc(Cl)cc1C(=O)NC1N=C(c2c(Cl)cc(Cl)cc2CN2CCOCC2)c2ccccc2NC1=O (stereo not drawn) [Example 49, 5-Chloro-N-(5-(2,4-dichloro-6-(morpholinomethyl)phenyl)-2-oxo-2,3-dihydro-1H-benzo[e][1,4]diazepin-3-yl)-2-(2-methoxyethoxy)benzamide] | 167 nM | 829 nM | 11.02 µM
CCOc1cc(Cl)cc(Cl)c1C1=N[C@H](NC(=O)c2cc(F)ccc2OCCOC)C(=O)Nc2ccccc21 [Example 69, (S)—N-(5-(2,4-Dichloro-6-ethoxyphenyl)-2-oxo-2,3-dihydro-1H-benzo[e][1,4]diazepin-3-yl)-5-fluoro-2-(2-methoxyethoxy)benzamide] | 31.3 nM | 79.2 nM | 17.731 µM
COCCOc1nccc(C)c1C(=O)NC1N=C(c2c(Cl)cc(Cl)cc2Cl)c2ccccc2NC1=O (stereo not drawn) [Example 40, 2-(2-Methoxyethoxy)-4-methyl-N-(2-oxo-5-(2,4,6-trichlorophenyl)-2,3-dihydro-1H-benzo[e][1,4]diazepin-3-yl)nicotinamide] | 856 nM | 2960 nM | 24.518 µM
COCCOc1ccc(F)cc1C(=O)N[C@@H]1N=C(c2c(Cl)cc(Cl)cc2Cl)c2ccccc2NC1=O [Example 62, (R)-5-Fluoro-2-(2-methoxyethoxy)-N-(2-oxo-5-(2,4,6-trichlorophenyl)-2,3-dihydro-1H-benzo[e][1,4]diazepin-3-yl)benzamide] | 594 nM | 16800 nM | 24.765 µM
COCCN(C)c1ncc(F)cc1C(=O)NC1N=C(c2c(Cl)cc(Cl)cc2Cl)c2ccccc2NC1=O (stereo not drawn) [Example 41, 5-Fluoro-2-((2-methoxyethyl)(methyl)amino)-N-(2-oxo-5-(2,4,6-trichlorophenyl)-2,3-dihydro-1H-benzo[e][1,4]diazepin-3-yl)nicotinamide] | 24.7 nM | 129 nM | 24.146 µM
COCCOc1ccc(Br)cc1C(=O)NC1N=C(c2c(Cl)cc(Cl)cc2Cl)c2ccccc2NC1=O (stereo not drawn) [Example 20, 5-Bromo-2-(2-methoxyethoxy)-N-(2-oxo-5-(2,4,6-trichlorophenyl)-2,3-dihydro-1H-benzo[e][1,4]diazepin-3-yl)benzamide] | 195 nM | 535 nM | >25 µM
COCCOc1ncc(F)cc1C(=O)NC1N=C(c2c(Cl)cc(Cl)cc2Cl)c2ccccc2NC1=O (stereo not drawn) [Example 30, 5-Fluoro-2-(2-methoxyethoxy)-N-(2-oxo-5-(2,4,6-trichlorophenyl)-2,3-dihydro-1H-benzo[e][1,4]diazepin-3-yl)nicotinamide] | 46.4 nM | 116 nM | >25 µM
COCCN(c1ncc(F)cc1C(=O)NC1N=C(c2c(Cl)cc(Cl)cc2Cl)c2ccccc2NC1=O)C(C)C (stereo not drawn) [Example 44, 5-Fluoro-2-(isopropyl(2-methoxyethyl)amino)-N-(2-oxo-5-(2,4,6-trichlorophenyl)-2,3-dihydro-1H-benzo[e][1,4]diazepin-3-yl)nicotinamide] | 2650 nM | 1330 nM | 23.394 µM
CN(C)CCOCCOc1ccc(Cl)cc1C(=O)NC1N=C(c2c(Cl)cc(Cl)cc2Cl)c2ccccc2NC1=O (stereo not drawn) [Example 13, 5-Chloro-2-(2-(2-(dimethylamino)ethoxy)ethoxy)-N-(2-oxo-5-(2,4,6-trichlorophenyl)-2,3-dihydro-1H-benzo[e][1,4]diazepin-3-yl)benzamide] | 3170 nM | 1700 nM | 6.754 µM
COCCOc1ccc(F)cc1C(=O)NC1N=C(c2c(Cl)cc(Cl)cc2CN2CCOCC2)c2ccccc2NC1=O (stereo not drawn) [Example 50, N-(5-(2,4-Dichloro-6-(morpholinomethyl)phenyl)-2-oxo-2,3-dihydro-1H-benzo[e][1,4]diazepin-3-yl)-5-fluoro-2-(2-methoxyethoxy)benzamide] | 208 nM | 666 nM | 11.74 µM
COCCOc1ccc(Cl)cc1C(=O)NC1N=C(c2c(Cl)cc(Cl)cc2Cl)c2ccccc2NC1=O (stereo not drawn) [Example 14, 5-Chloro-2-(2-methoxyethoxy)-N-(2-oxo-5-(2,4,6-trichlorophenyl)-2,3-dihydro-1H-benzo[e][1,4]diazepin-3-yl)benzamide] | 83.3 nM | 154 nM | 19.834 µM
COCCOc1ncccc1C(=O)NC1N=C(c2c(Cl)cc(Cl)cc2Cl)c2ccccc2NC1=O (stereo not drawn) [Example 31, 2-(2-Methoxyethoxy)-N-(2-oxo-5-(2,4,6-trichlorophenyl)-2,3-dihydro-1H-benzo[e][1,4]diazepin-3-yl)nicotinamide] | 234 nM | 248 nM | >25 µM
CCC(=O)NCCCOc1ccc(Cl)cc1C(=O)NC1N=C(c2c(Cl)cc(Cl)cc2Cl)c2ccccc2NC1=O (stereo not drawn) [Example 26, 5-Chloro-N-(2-oxo-5-(2,4,6-trichlorophenyl)-2,3-dihydro-1H-benzo[e][1,4]diazepin-3-yl)-2-(3-propionamidopropoxy)benzamide] | 1620 nM | 647 nM | 12.354 µM
